# The source made the active and inactive calls. How the calls were made is not given here.
# Test system: rodent lifetime carcinogenesis bioassay, tumor incidence TD50
# Assay: carcinogenic potency in animals, long-term in vivo studies, CPDB compilation (AID 1745844)
smiles,measurement,setting,value
Clc1ccc(-c2ccc(Cl)c(Cl)c2Cl)c(Cl)c1Cl,TD50,"rat, strain Sherman COBS, females, in feed, site: liver, lesion: hepatocellular carcinoma, dosed 89 weeks, study length 95 weeks",18.3 mg/kg/day
same,TD50,"rat, strain Sherman COBS, females, in feed, site: liver, lesion: neoplastic nodule, dosed 89 weeks, study length 95 weeks",1.76 mg/kg/day
same,TD50,"rat, strain Sherman COBS, females, in feed, site: liver, lesion: several types, types named in the paper, dosed 89 weeks, study length 95 weeks",1.04 mg/kg/day
same,TD50,"rat, strain Sprague-Dawley, females, in feed, site: liver, lesion: cholangioma, dosed 104 weeks, study length 104 weeks",98.2 mg/kg/day
same,TD50,"rat, strain Sprague-Dawley, females, in feed, site: liver, lesion: hepatocellular adenoma, dosed 104 weeks, study length 104 weeks",6.43 mg/kg/day
same,TD50,"rat, strain Sprague-Dawley, females, in feed, site: liver, lesion: hepatocellular carcinoma, dosed 104 weeks, study length 104 weeks",41.4 mg/kg/day
same,TD50,"rat, strain Sprague-Dawley, females, in feed, site: liver, lesion: several types, types named in the paper, dosed 104 weeks, study length 104 weeks",5.51 mg/kg/day
same,TD50,"rat, strain Sprague-Dawley, males, in feed, site: liver, lesion: hepatocellular adenoma, dosed 104 weeks, study length 104 weeks",24.8 mg/kg/day
same,TD50,"rat, strain Sprague-Dawley, males, in feed, site: liver, lesion: hepatocellular carcinoma, dosed 104 weeks, study length 104 weeks",121 mg/kg/day
same,TD50,"rat, strain Sprague-Dawley, males, in feed, site: liver, lesion: several types, types named in the paper, dosed 104 weeks, study length 104 weeks",20 mg/kg/day
same,TD50,"rat, strain Sprague-Dawley, males, in feed, site: thyroid gland, lesion: follicular-cell adenoma, dosed 104 weeks, study length 104 weeks",11.4 mg/kg/day
same,TD50,"rat, strain Sprague-Dawley, males, in feed, site: thyroid gland, lesion: follicular-cell carcinoma, dosed 104 weeks, study length 104 weeks",232 mg/kg/day
same,TD50,"rat, strain Sprague-Dawley, males, in feed, site: thyroid gland, lesion: several types, types named in the paper, dosed 104 weeks, study length 104 weeks",10.3 mg/kg/day
same,TD50,"rat, strain Wistar, males, in feed, site: liver, lesion: hepatocellular carcinoma, dosed 116 weeks, study length 116 weeks",5.39 mg/kg/day
CNc1ncnc2c1ncn2[C@@H]1O[C@H](CO)[C@@H](O)[C@H]1O,TD50,"mouse, strain Swiss CD-1, females, in drinking water, site: liver, lesion: several types, types named in the paper, dosed 34 weeks, study length 115 weeks",364 mg/kg/day (inactive)
same,carcinogen call,"mouse, strain Swiss CD-1, females, in drinking water, site: lung, lesion: one or several types, types not named, dosed 34 weeks, study length 115 weeks",negative (inactive)
same,TD50,"mouse, strain Swiss CD-1, males, in drinking water, site: liver, lesion: several types, types named in the paper, dosed 34 weeks, study length 118 weeks",108 mg/kg/day (inactive)
same,TD50,"mouse, strain Swiss CD-1, males, in drinking water, site: lung, lesion: one or several types, types not named, dosed 34 weeks, study length 118 weeks",55.6 mg/kg/day (inactive)
c1ccc2occc2c1,TD50,"mouse, strain B6C3F1, females, by gavage, site: any site (literature study), lesion: several types, types named in the paper, dosed 103 weeks, study length 104 weeks",45.9 mg/kg/day
same,TD50,"mouse, strain B6C3F1, females, by gavage, site: forestomach + liver + lung, lesion: squamous-cell carcinoma + squamous-cell papilloma + hepatocellular adenoma + alveolar/bronchiolar adenoma + alveolar/bronchiolar, dosed 103 weeks, study length 104 weeks",33.4 mg/kg/day
same,TD50,"mouse, strain B6C3F1, females, by gavage, site: forestomach, lesion: squamous-cell carcinoma + squamous-cell papilloma, dosed 103 weeks, study length 104 weeks",145 mg/kg/day
same,TD50,"mouse, strain B6C3F1, females, by gavage, site: forestomach, lesion: squamous-cell papilloma, dosed 103 weeks, study length 104 weeks",172 mg/kg/day
same,TD50,"mouse, strain B6C3F1, females, by gavage, site: liver, lesion: hepatocellular adenoma + hepatocellular carcinoma + neoplastic nodule, dosed 103 weeks, study length 104 weeks",36.4 mg/kg/day
same,TD50,"mouse, strain B6C3F1, females, by gavage, site: liver, lesion: hepatocellular adenoma + hepatocellular carcinoma, dosed 103 weeks, study length 104 weeks",36.4 mg/kg/day
same,TD50,"mouse, strain B6C3F1, females, by gavage, site: liver, lesion: hepatocellular adenoma, dosed 103 weeks, study length 104 weeks",34.4 mg/kg/day
same,TD50,"mouse, strain B6C3F1, females, by gavage, site: lung, lesion: alveolar/bronchiolar adenoma + alveolar/bronchiolar carcinoma, dosed 103 weeks, study length 104 weeks",174 mg/kg/day
same,TD50,"mouse, strain B6C3F1, females, by gavage, site: lung, lesion: alveolar/bronchiolar adenoma, dosed 103 weeks, study length 104 weeks",224 mg/kg/day
same,TD50,"mouse, strain B6C3F1, females, by gavage, site: multiple organs + spleen, lesion: malignant lymphoma, undifferentiated type, dosed 103 weeks, study length 104 weeks",322 mg/kg/day
same,TD50,"mouse, strain B6C3F1, males, by gavage, site: any site (literature study), lesion: several types, types named in the paper, dosed 103 weeks, study length 104 weeks",54.3 mg/kg/day
same,TD50,"mouse, strain B6C3F1, males, by gavage, site: forestomach + liver + lung, lesion: squamous-cell carcinoma + squamous-cell papilloma + hepatocellular adenoma + hepatoblastoma + hepatocellular carcinoma + alveolar/, dosed 103 weeks, study length 104 weeks",23.9 mg/kg/day
same,TD50,"mouse, strain B6C3F1, males, by gavage, site: forestomach, lesion: squamous-cell carcinoma + squamous-cell papilloma, dosed 103 weeks, study length 104 weeks",108 mg/kg/day
same,TD50,"mouse, strain B6C3F1, males, by gavage, site: forestomach, lesion: squamous-cell carcinoma, dosed 103 weeks, study length 104 weeks",383 mg/kg/day
same,TD50,"mouse, strain B6C3F1, males, by gavage, site: forestomach, lesion: squamous-cell papilloma, dosed 103 weeks, study length 104 weeks",154 mg/kg/day
same,TD50,"mouse, strain B6C3F1, males, by gavage, site: liver, lesion: hepatoblastoma + hepatocellular carcinoma, dosed 103 weeks, study length 104 weeks",114 mg/kg/day
same,TD50,"mouse, strain B6C3F1, males, by gavage, site: liver, lesion: hepatoblastoma, dosed 103 weeks, study length 104 weeks",102 mg/kg/day
same,TD50,"mouse, strain B6C3F1, males, by gavage, site: liver, lesion: hepatocellular adenoma + hepatoblastoma + hepatocellular carcinoma, dosed 103 weeks, study length 104 weeks",19.8 mg/kg/day
same,TD50,"mouse, strain B6C3F1, males, by gavage, site: liver, lesion: hepatocellular adenoma + hepatocellular carcinoma + neoplastic nodule, dosed 103 weeks, study length 104 weeks",21.3 mg/kg/day
same,TD50,"mouse, strain B6C3F1, males, by gavage, site: liver, lesion: hepatocellular adenoma + hepatocellular carcinoma, dosed 103 weeks, study length 104 weeks",21.3 mg/kg/day
same,TD50,"mouse, strain B6C3F1, males, by gavage, site: liver, lesion: hepatocellular adenoma, dosed 103 weeks, study length 104 weeks",20.5 mg/kg/day
same,TD50,"mouse, strain B6C3F1, males, by gavage, site: lung, lesion: alveolar/bronchiolar adenoma + alveolar/bronchiolar carcinoma, dosed 103 weeks, study length 104 weeks",160 mg/kg/day
same,TD50,"mouse, strain B6C3F1, males, by gavage, site: lung, lesion: alveolar/bronchiolar adenoma, dosed 103 weeks, study length 104 weeks",136 mg/kg/day
same,TD50,"mouse, strain B6C3F1, males, by gavage, site: multiple organs, lesion: malignant lymphoma, lymphocytic type, dosed 103 weeks, study length 104 weeks",919 mg/kg/day
same,TD50,"rat, strain Fischer 344, females, by gavage, site: any site (literature study), lesion: several types, types named in the paper, dosed 103 weeks, study length 104 weeks",577 mg/kg/day
same,TD50,"rat, strain Fischer 344, females, by gavage, site: kidney, lesion: tubular-cell adenocarcinoma, dosed 103 weeks, study length 104 weeks",424 mg/kg/day
same,TD50,"rat, strain Fischer 344, females, by gavage, site: liver, lesion: hepatocellular adenoma + hepatocellular carcinoma + neoplastic nodule, dosed 103 weeks, study length 104 weeks",2090 mg/kg/day
same,TD50,"rat, strain Fischer 344, females, by gavage, site: lung, lesion: alveolar/bronchiolar adenoma + alveolar/bronchiolar carcinoma, dosed 103 weeks, study length 104 weeks",418 mg/kg/day
same,TD50,"rat, strain Fischer 344, females, by gavage, site: lung, lesion: alveolar/bronchiolar adenoma, dosed 103 weeks, study length 104 weeks",530 mg/kg/day
same,TD50,"rat, strain Fischer 344, females, by gavage, site: subcutaneous tissue, lesion: neurilemoma, malignant, dosed 103 weeks, study length 104 weeks",98.8 mg/kg/day
same,TD50,"rat, strain Fischer 344, females, by gavage, site: tongue, lesion: squamous-cell papilloma, dosed 103 weeks, study length 104 weeks",574 mg/kg/day
same,TD50,"rat, strain Fischer 344, males, by gavage, site: any site (literature study), lesion: several types, types named in the paper, dosed 103 weeks, study length 104 weeks",22.5 mg/kg/day
same,TD50,"rat, strain Fischer 344, males, by gavage, site: liver + multiple organs, lesion: mononuclear-cell leukemia, dosed 103 weeks, study length 104 weeks",55.3 mg/kg/day
same,TD50,"rat, strain Fischer 344, males, by gavage, site: lung, lesion: alveolar/bronchiolar carcinoma, dosed 103 weeks, study length 104 weeks",166 mg/kg/day
same,TD50,"rat, strain Fischer 344, males, by gavage, site: mammary gland, lesion: fibroadenoma, dosed 103 weeks, study length 104 weeks",271 mg/kg/day
same,TD50,"rat, strain Fischer 344, males, by gavage, site: pituitary gland, lesion: adenoma, NOS, dosed 103 weeks, study length 104 weeks",45.8 mg/kg/day
same,TD50,"rat, strain Fischer 344, males, by gavage, site: testis, lesion: interstitial-cell tumor, dosed 103 weeks, study length 104 weeks",8.03 mg/kg/day (inactive)
same,TD50,"rat, strain Fischer 344, males, by gavage, site: thyroid gland, lesion: follicular-cell carcinoma, dosed 103 weeks, study length 104 weeks",389 mg/kg/day
CC1(C)[C@@H](O[C@H]2O[C@H](C(=O)O)[C@@H](O)[C@H](O)[C@H]2O[C@@H]2O[C@H](C(=O)O)[C@@H](O)[C@H](O)[C@H]2O)CC[C@]2(C)[C@H]3C(=O)C=C4[C@@H]5C[C@@](C)(C(=O)O)CC[C@]5(C)CC[C@@]4(C)[C@]3(C)CC[C@@H]12,carcinogen call,"mouse, strain B6C3F1, females, in drinking water, site: any site (literature study), lesion: several types, types named in the paper, dosed 96 weeks, study length 110 weeks",negative (inactive)
same,carcinogen call,"mouse, strain B6C3F1, females, in drinking water, site: liver, lesion: hemangioma, dosed 96 weeks, study length 110 weeks",negative (inactive)
same,TD50,"mouse, strain B6C3F1, females, in drinking water, site: liver, lesion: hepatocellular adenoma, dosed 96 weeks, study length 110 weeks",28900 mg/kg/day (inactive)
same,TD50,"mouse, strain B6C3F1, females, in drinking water, site: liver, lesion: hepatocellular carcinoma, dosed 96 weeks, study length 110 weeks",29000 mg/kg/day (inactive)
same,carcinogen call,"mouse, strain B6C3F1, females, in drinking water, site: lung, lesion: adenocarcinoma, dosed 96 weeks, study length 110 weeks",negative (inactive)
same,TD50,"mouse, strain B6C3F1, females, in drinking water, site: lung, lesion: adenoma, dosed 96 weeks, study length 110 weeks",14400 mg/kg/day (inactive)
same,TD50,"mouse, strain B6C3F1, males, in drinking water, site: any site (literature study), lesion: several types, types named in the paper, dosed 96 weeks, study length 110 weeks",3170 mg/kg/day (inactive)
same,carcinogen call,"mouse, strain B6C3F1, males, in drinking water, site: liver, lesion: hemangioma, dosed 96 weeks, study length 110 weeks",negative (inactive)
same,carcinogen call,"mouse, strain B6C3F1, males, in drinking water, site: liver, lesion: hepatocellular adenoma, dosed 96 weeks, study length 110 weeks",negative (inactive)
same,carcinogen call,"mouse, strain B6C3F1, males, in drinking water, site: liver, lesion: hepatocellular carcinoma, dosed 96 weeks, study length 110 weeks",negative (inactive)
same,carcinogen call,"mouse, strain B6C3F1, males, in drinking water, site: lung, lesion: adenocarcinoma, dosed 96 weeks, study length 110 weeks",negative (inactive)
same,carcinogen call,"mouse, strain B6C3F1, males, in drinking water, site: lung, lesion: adenoma, dosed 96 weeks, study length 110 weeks",negative (inactive)
CCCN(CCC)N=O,TD50,"monkey, strain Rhesus [Macaca mulatta], both sexes, i.p., site: any site (literature study), lesion: malignant tumor, dosed 133 weeks, study length 133 weeks",0.0121 mg/kg/day
same,TD50,"monkey, strain Rhesus [Macaca mulatta], both sexes, i.p., site: liver, lesion: hepatocellular carcinoma, dosed 133 weeks, study length 133 weeks",0.0121 mg/kg/day
same,TD50,"rat, strain Fischer 344, females, by gavage, site: esophagus, lesion: several types, types named in the paper, dosed 30 weeks, study length 60 weeks",0.505 mg/kg/day
same,TD50,"rat, strain Fischer 344, females, by gavage, site: liver, lesion: hepatocellular carcinoma, dosed 30 weeks, study length 60 weeks",0.186 mg/kg/day
same,TD50,"rat, strain Fischer 344, females, by gavage, site: nasal cavity, lesion: carcinoma, dosed 30 weeks, study length 60 weeks",0.186 mg/kg/day
O=[N+]([O-])c1ccc2ncccc2c1,carcinogen call,"rat, strain Fischer 344, females, in feed, site: liver, lesion: hyperplastic nodule, dosed 104 weeks, study length 104 weeks",negative (inactive)
same,TD50,"rat, strain Fischer 344, males, in feed, site: liver, lesion: hyperplastic nodule, dosed 104 weeks, study length 104 weeks",267 mg/kg/day (inactive)
Nc1ccc2oc3ccccc3c2c1,carcinogen call,"mouse, strain (C57 x IF)F1, females, in feed, site: liver, lesion: several types, types named in the paper, dosed 52 weeks, study length 58 weeks",positive
same,TD50,"mouse, strain (C57 x IF)F1, males, in feed, site: liver, lesion: malignant hepatoma, dosed 52 weeks, study length 67 weeks",8.67 mg/kg/day
same,TD50,"mouse, strain (C57 x IF)F1, males, in feed, site: liver, lesion: several types, types named in the paper, dosed 52 weeks, study length 67 weeks",5.73 mg/kg/day
same,TD50,"mouse, strain (C57 x IF)F1, males, in feed, site: urinary bladder, lesion: carcinoma, dosed 52 weeks, study length 67 weeks",22.3 mg/kg/day

# Source: PubChem BioAssay AID1745844 (Carcinogenic Potency Database (CPDB), 2022)
